The values below come from patent US7026304B2, “2-alkylated-cyclodextrin derivatives: reversal agents for drug-induced neuromuscular block” (Akzo Nobel N.V., priority 2001, dated 2006).

For the test, the system named is steady-state neuromuscular block induced by the muscle relaxant rocuronium bromide (Roc). The test is described as follows: Reversal of neuromuscular blockade in anaesthetized guinea pigs in vivo. Details: species or system guinea pig. The procedure: Reversal of Neuromuscular Blockade in Anaesthetized Guinea Pigs in vivo Male Dunkin-Hartley guinea pigs (bodyweight: 600–900 g) were anaesthetized by i.p. administration of 10 mg/kg pentobarbitone and 1000 mg/kg urethane. After tracheotomy, the animals were artificially ventilated using a Harvard small animal ventilator. A catheter was placed into the carotid artery for continuous monitoring of arterial blood pressure and the taking of blood samples for blood gas analysis. Heart rate was derived from the blood pressure signal. The sciatic nerve was stimulated (rectangular pulses of 0.5 ms duration at 10 s (0.1 Hz) intervals at a supramaximal voltage, using a Grass S88 Stimulator) and the force of M. gastrocnemius contractions was measured using a Grass FT03 force-displacement transducer. Contractions, blood pressure and heart rate were recorded on a multichannel Grass 7D recorder. Catheters were placed in both jugular veins. One catheter was used for the continuous infusion of a neuromuscular blocking agent. […] The other catheter was used for administration of increasing doses of the reversal agent. During continuous infusion of the neuromuscular blocking agent, single doses of increasing concentration of reversal agent were given.

Where [1] appears, read: anaesthetized guinea pigs, rocuronium bromide-induced steady-state block.
Where [2] appears, read: anaesthetized guinea pigs, rocuronium bromide-induced steady-state block, dose at which % max reversal was reached.
The mark [3] stands for this setting: anaesthetized male Dunkin-Hartley guinea pigs, rocuronium bromide infusion to steady-state block of 85–90%, reversal agent i.v. in increasing doses.

As for `O=C([O-])CSCCCO[C@H]1[C@H]2O[C@H]3[C@H](O)[C@@H](OCCCSCC(=O)[O-])[C@@H](O[C@H]4[C@H](O)[C@@H](OCCCSCC(=O)[O-])[C@@H](O[C@H]5[C@H](O)[C@@H](OCCCSCC(=O)[O-])[C@@H](O[C@H]6[C@H](O)[C@@H](OCCCSCC(=O)[O-])[C@@H](O[C@H]7[C@H](O)[C@@H](OCCCSCC(=O)[O-])[C@@H](O[C@H]8[C@H](O)[C@@H](OCCCSCC(=O)[O-])[C@@H](O[C@H]9[C@H](O)[C@@H](OCCCSCC(=O)[O-])[C@@H](O[C@@H]([C@@H]1O)[C@@H](CO)O2)O[C@@H]9CO)O[C@@H]8CO)O[C@@H]7CO)O[C@@H]6CO)O[C@@H]5CO)O[C@@H]4CO)O[C@@H]3CO.[Na+].[Na+].[Na+].[Na+].[Na+].[Na+].[Na+].[Na+]` [Example 7, Octakis per-2-O-(5-carboxy-4-thia-pentyl)-γ-cyclodextrin, Na salt], the “% max reversal” value under setting [1] was 91%. In addition, under setting [2], the “concentration at maximum reversal” value is listed as “(10) μmol · kg^−1”. Moreover, the “ED50, dose producing 50% reversal of steady-state neuromuscular block” value (“ED50, dose producing 50% reversal” for short) under setting [3] was 1.12 µmol/kg.
For `O=S(=O)([O-])CCSCCCO[C@H]1[C@H]2O[C@H]3[C@H](O)[C@@H](OCCCSCCS(=O)(=O)[O-])[C@@H](O[C@H]4[C@H](O)[C@@H](OCCCSCCS(=O)(=O)[O-])[C@@H](O[C@H]5[C@H](O)[C@@H](OCCCSCCS(=O)(=O)[O-])[C@@H](O[C@H]6[C@H](O)[C@@H](OCCCSCCS(=O)(=O)[O-])[C@@H](O[C@H]7[C@H](O)[C@@H](OCCCSCCS(=O)(=O)[O-])[C@@H](O[C@H]8[C@H](O)[C@@H](OCCCSCCS(=O)(=O)[O-])[C@@H](O[C@H]9[C@H](O)[C@@H](OCCCSCCS(=O)(=O)[O-])[C@@H](O[C@@H]([C@@H]1O)[C@@H](CO)O2)O[C@@H]9CO)O[C@@H]8CO)O[C@@H]7CO)O[C@@H]6CO)O[C@@H]5CO)O[C@@H]4CO)O[C@@H]3CO.[Na+].[Na+].[Na+].[Na+].[Na+].[Na+].[Na+].[Na+]` [Example 8, Octakis per-2-O-(6-sulfo-4-thia-hexyl)-γ-cyclodextrin, Na salt] the same measures were 85%, “(4.5) μmol · kg^−1” and 1.4 µmol/kg.
As to `O=C([O-])c1ccc(CO[C@H]2[C@H]3O[C@H]4[C@H](O)[C@@H](O)[C@@H](O[C@H]5[C@H](O)[C@@H](O)[C@@H](O[C@H]6[C@H](O)[C@@H](O)[C@@H](O[C@H]7[C@H](O)[C@@H](O)[C@@H](O[C@H]8[C@H](O)[C@@H](O)[C@@H](O[C@H]9[C@H](O)[C@@H](O)[C@@H](O[C@H]%10[C@H](O)[C@@H](O)[C@@H](O[C@@H]([C@@H]2O)[C@@H](CO)O3)O[C@@H]%10CO)O[C@@H]9CO)O[C@@H]8CO)O[C@@H]7CO)O[C@@H]6CO)O[C@@H]5CO)O[C@@H]4CO)cc1.[Na+]` [Example 5, Mono-2-O-(4-carboxybenzyl)-γ-cyclodextrin sodium salt], under setting [1], the “% max reversal” value worked out at 96%. In addition, under setting [2], the “concentration at maximum reversal” value is “(2.6) μmol · kg^−1”. Under setting [3], the “ED50, dose producing 50% reversal” value was 0.25 µmol/kg.
For `O=C([O-])CCSCCCO[C@H]1[C@H]2O[C@H]3[C@H](O)[C@@H](OCCCSCCC(=O)[O-])[C@@H](O[C@H]4[C@H](O)[C@@H](OCCCSCCC(=O)[O-])[C@@H](O[C@H]5[C@H](O)[C@@H](OCCCSCCC(=O)[O-])[C@@H](O[C@H]6[C@H](O)[C@@H](OCCCSCCC(=O)[O-])[C@@H](O[C@H]7[C@H](O)[C@@H](OCCCSCCC(=O)[O-])[C@@H](O[C@H]8[C@H](O)[C@@H](OCCCSCCC(=O)[O-])[C@@H](O[C@H]9[C@H](O)[C@@H](OCCCSCCC(=O)[O-])[C@@H](O[C@@H]([C@@H]1O)[C@@H](CO)O2)O[C@@H]9CO)O[C@@H]8CO)O[C@@H]7CO)O[C@@H]6CO)O[C@@H]5CO)O[C@@H]4CO)O[C@@H]3CO.[Na+].[Na+].[Na+].[Na+].[Na+].[Na+].[Na+].[Na+]` [Example 6, Octakis per-2-O-(6-carboxy-4-thia-hexyl)-γ-cyclodextrin, Na salt], under “guinea pig, in vivo”, the “% max reversal” value is 86% and the “concentration at maximum reversal” value is on record as “(16) μmol · kg^−1”. The “ED50, dose producing 50% reversal” value (guinea pig, in vivo, iv) is 3.4 µmol/kg.
On to `OCCOCCSCCCO[C@H]1[C@H]2O[C@H]3[C@H](O)[C@@H](OCCCSCCOCCO)[C@@H](O[C@H]4[C@H](O)[C@@H](OCCCSCCOCCO)[C@@H](O[C@H]5[C@H](O)[C@@H](OCCCSCCOCCO)[C@@H](O[C@H]6[C@H](O)[C@@H](OCCCSCCOCCO)[C@@H](O[C@H]7[C@H](O)[C@@H](OCCCSCCOCCO)[C@@H](O[C@H]8[C@H](O)[C@@H](OCCCSCCOCCO)[C@@H](O[C@@H]([C@@H]1O)[C@@H](CO)O2)O[C@@H]8CO)O[C@@H]7CO)O[C@@H]6CO)O[C@@H]5CO)O[C@@H]4CO)O[C@@H]3CO` [Example 10, Heptakis per-2-O-(9-hydroxy-7-oxa-4-thia-nonyl)-β-cyclodextrin], for which the “% max reversal” value under setting [1] came to 72%. Also, the “concentration at maximum reversal” value under setting [2] is given as “(12) μmol · kg^−1”. Moreover, the “ED50, dose producing 50% reversal” value under setting [3] is 5.6 µmol/kg.
The corresponding values for `O=C([O-])c1ccccc1CO[C@H]1[C@H]2O[C@H]3[C@H](O)[C@@H](OCc4ccccc4C(=O)[O-])[C@@H](O[C@H]4[C@H](O)[C@@H](OCc5ccccc5C(=O)[O-])[C@@H](O[C@H]5[C@H](O)[C@@H](OCc6ccccc6C(=O)[O-])[C@@H](O[C@H]6[C@H](O)[C@@H](OCc7ccccc7C(=O)[O-])[C@@H](O[C@H]7[C@H](O)[C@@H](OCc8ccccc8C(=O)[O-])[C@@H](O[C@H]8[C@H](O)[C@@H](OCc9ccccc9C(=O)[O-])[C@@H](O[C@H]9[C@H](O)[C@@H](OCc%10ccccc%10C(=O)[O-])[C@@H](O[C@@H]([C@@H]1O)[C@@H](CO)O2)O[C@@H]9CO)O[C@@H]8CO)O[C@@H]7CO)O[C@@H]6CO)O[C@@H]5CO)O[C@@H]4CO)O[C@@H]3CO.[Na+].[Na+].[Na+].[Na+].[Na+].[Na+].[Na+].[Na+]` [Example 4, Octakis per-2-O-(2-carboxybenzyl)-γ-cyclodextrin, Na salt] are 84%, “(15) μmol · kg^−1” and 3.4 µmol/kg.
For “Octakis per-2-O-(3-carboxybenzyl)-γ-cyclodextrin, Na salt [Example 2]” the same measures were 104%, “(4.8) μmol · kg^−1” and 0.38 µmol/kg.
For `OCC(O)CSCCCO[C@H]1[C@H]2O[C@H]3[C@H](O)[C@@H](OCCCSCC(O)CO)[C@@H](O[C@H]4[C@H](O)[C@@H](OCCCSCC(O)CO)[C@@H](O[C@H]5[C@H](O)[C@@H](OCCCSCC(O)CO)[C@@H](O[C@H]6[C@H](O)[C@@H](OCCCSCC(O)CO)[C@@H](O[C@H]7[C@H](O)[C@@H](OCCCSCC(O)CO)[C@@H](O[C@H]8[C@H](O)[C@@H](OCCCSCC(O)CO)[C@@H](O[C@@H]([C@@H]1O)[C@@H](CO)O2)O[C@@H]8CO)O[C@@H]7CO)O[C@@H]6CO)O[C@@H]5CO)O[C@@H]4CO)O[C@@H]3CO` (stereo partly drawn) [Example 9, Heptakis per-2-O-(6,7-dihydroxy-4-thia-heptyl)-β-cyclodextrin] the same measures were 93%, “(6.4) μmol · kg^−1” and 1.10 µmol/kg.
